# Laboratory results published in ChEMBL document CHEMBL1201862, “PubChem BioAssay data set” (2004).
# Calls of active or inactive are those of the source.
# Legend:
# [1] = biological target: T1, Short transient receptor potential channel 4 (Mus musculus, UniProt Q9QUQ5); experiment: mouse TRPC4 channel activators, dose response, cell-based, HEK293 TRPC4/mu-opioid, Fluo-4 calcium (AID 434937); type: functional
# T1 sequence (Q9QUQ5 whole entry): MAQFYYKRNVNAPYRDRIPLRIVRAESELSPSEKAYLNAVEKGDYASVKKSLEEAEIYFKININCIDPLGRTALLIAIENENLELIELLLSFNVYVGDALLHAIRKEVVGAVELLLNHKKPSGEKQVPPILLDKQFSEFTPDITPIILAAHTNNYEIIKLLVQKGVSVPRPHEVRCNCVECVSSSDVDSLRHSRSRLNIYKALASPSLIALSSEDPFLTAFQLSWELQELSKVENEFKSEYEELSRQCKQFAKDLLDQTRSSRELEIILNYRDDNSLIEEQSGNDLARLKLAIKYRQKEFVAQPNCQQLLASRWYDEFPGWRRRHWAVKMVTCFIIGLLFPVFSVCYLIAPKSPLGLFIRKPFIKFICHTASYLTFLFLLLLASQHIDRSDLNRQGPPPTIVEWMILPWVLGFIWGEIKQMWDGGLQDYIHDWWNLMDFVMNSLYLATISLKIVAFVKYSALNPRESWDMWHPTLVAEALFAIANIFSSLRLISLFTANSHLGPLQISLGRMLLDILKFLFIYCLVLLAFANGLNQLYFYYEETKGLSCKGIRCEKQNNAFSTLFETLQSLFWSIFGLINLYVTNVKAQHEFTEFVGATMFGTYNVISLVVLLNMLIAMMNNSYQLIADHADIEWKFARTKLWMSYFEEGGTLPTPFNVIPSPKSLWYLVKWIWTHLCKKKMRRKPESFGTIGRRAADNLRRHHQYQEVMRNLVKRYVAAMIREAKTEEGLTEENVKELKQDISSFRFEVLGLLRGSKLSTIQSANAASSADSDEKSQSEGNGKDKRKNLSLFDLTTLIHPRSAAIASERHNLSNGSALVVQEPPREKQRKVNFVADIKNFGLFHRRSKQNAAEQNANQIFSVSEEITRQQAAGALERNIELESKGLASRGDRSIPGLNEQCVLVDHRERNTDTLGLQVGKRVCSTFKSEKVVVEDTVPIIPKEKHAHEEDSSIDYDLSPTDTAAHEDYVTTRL
# [2] = biological target: Genome polyprotein (dengue virus type 2, UniProt P29990); experiment: Dengue-2 NS5 methyltransferase inhibitors, primary screen, biochemical, confirmation dose response (AID 588689); type: functional
# Sequence of Genome polyprotein (P29990 2492-3391 limits assumed): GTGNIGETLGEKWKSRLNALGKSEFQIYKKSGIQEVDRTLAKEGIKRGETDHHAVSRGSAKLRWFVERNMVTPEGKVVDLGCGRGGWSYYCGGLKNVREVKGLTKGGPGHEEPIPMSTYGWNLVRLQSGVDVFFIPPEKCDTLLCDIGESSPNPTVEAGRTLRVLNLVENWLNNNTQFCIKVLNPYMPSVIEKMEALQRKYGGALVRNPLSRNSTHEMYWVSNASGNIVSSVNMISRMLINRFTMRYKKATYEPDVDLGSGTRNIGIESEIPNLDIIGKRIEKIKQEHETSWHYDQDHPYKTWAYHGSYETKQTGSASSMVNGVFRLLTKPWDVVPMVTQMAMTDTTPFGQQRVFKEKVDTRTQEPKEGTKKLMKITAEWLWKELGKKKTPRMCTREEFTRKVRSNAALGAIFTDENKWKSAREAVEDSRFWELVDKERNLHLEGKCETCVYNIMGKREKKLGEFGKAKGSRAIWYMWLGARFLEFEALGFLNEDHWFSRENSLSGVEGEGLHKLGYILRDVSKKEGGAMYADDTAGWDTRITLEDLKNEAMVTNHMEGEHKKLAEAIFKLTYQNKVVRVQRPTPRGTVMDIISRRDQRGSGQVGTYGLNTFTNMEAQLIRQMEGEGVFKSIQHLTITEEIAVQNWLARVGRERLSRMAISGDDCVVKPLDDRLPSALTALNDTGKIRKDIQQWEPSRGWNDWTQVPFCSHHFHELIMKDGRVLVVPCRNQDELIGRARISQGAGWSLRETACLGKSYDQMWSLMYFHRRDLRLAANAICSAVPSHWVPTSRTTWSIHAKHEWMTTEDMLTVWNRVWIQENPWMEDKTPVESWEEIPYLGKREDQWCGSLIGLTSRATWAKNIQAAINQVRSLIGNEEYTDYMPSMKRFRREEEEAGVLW
# [3] = biological target: Glyceraldehyde-3-phosphate dehydrogenase (Homo sapiens, UniProt P04406)
# Sequence of Glyceraldehyde-3-phosphate dehydrogenase (P04406 whole entry): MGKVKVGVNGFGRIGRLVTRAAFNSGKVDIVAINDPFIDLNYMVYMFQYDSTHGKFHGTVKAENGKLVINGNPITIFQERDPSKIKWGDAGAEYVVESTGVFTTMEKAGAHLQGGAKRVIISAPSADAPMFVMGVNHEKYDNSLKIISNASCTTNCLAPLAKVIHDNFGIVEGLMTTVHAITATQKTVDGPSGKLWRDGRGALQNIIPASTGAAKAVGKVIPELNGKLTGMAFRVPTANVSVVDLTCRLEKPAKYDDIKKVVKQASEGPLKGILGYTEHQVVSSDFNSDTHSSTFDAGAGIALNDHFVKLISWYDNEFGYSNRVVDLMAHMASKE
# [4] = A Cell Based Secondary Assay To Explore Cytotoxicity of Compounds that Sensitize Mycobacterium Tuberculosis to Beta-Lactam Antibiotics.; type: functional
# [5] = biological target: Beta-galactosidase (Escherichia coli, UniProt Q8VNN2); experiment: beta-galactosidase enzyme inhibitors and activators, dose response, artefact control for CCR6 antagonist project, biochemical, E. coli enzyme, set 3 (AID 504712); type: functional
# Sequence of Beta-galactosidase (Q8VNN2 whole entry): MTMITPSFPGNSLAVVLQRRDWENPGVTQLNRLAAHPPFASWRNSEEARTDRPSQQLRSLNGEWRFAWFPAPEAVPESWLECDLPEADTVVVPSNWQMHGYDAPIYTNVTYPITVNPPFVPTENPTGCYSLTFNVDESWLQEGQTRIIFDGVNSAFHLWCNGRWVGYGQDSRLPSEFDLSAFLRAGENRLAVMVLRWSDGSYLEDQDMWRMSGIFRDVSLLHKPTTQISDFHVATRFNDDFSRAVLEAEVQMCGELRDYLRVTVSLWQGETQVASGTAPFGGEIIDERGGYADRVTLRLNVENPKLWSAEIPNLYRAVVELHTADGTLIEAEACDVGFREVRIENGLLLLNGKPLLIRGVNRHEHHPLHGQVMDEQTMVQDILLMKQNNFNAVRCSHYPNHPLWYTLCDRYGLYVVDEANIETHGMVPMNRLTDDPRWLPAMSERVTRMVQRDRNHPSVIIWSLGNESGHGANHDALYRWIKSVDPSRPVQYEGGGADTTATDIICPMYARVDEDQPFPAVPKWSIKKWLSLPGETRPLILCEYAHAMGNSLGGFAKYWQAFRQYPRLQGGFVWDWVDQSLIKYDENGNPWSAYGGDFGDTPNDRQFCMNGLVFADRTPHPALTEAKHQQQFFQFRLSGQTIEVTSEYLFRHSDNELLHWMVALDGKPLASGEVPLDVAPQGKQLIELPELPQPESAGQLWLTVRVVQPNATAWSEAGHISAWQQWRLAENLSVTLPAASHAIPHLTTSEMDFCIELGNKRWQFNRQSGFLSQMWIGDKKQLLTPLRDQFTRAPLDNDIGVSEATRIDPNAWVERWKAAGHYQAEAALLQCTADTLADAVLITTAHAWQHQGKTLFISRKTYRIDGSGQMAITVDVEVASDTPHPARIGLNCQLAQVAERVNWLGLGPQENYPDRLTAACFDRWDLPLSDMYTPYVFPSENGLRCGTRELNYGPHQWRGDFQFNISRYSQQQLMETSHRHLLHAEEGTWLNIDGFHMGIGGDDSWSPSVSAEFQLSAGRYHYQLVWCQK
# [6] = biological target: Voltage-dependent T-type calcium channel subunit alpha-1H (Homo sapiens, UniProt O95180); type: functional;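 note: channel activity triggered by adding a high calcium stimulation buffer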
# Sequence of Voltage-dependent T-type calcium channel subunit alpha-1H (O95180 whole entry): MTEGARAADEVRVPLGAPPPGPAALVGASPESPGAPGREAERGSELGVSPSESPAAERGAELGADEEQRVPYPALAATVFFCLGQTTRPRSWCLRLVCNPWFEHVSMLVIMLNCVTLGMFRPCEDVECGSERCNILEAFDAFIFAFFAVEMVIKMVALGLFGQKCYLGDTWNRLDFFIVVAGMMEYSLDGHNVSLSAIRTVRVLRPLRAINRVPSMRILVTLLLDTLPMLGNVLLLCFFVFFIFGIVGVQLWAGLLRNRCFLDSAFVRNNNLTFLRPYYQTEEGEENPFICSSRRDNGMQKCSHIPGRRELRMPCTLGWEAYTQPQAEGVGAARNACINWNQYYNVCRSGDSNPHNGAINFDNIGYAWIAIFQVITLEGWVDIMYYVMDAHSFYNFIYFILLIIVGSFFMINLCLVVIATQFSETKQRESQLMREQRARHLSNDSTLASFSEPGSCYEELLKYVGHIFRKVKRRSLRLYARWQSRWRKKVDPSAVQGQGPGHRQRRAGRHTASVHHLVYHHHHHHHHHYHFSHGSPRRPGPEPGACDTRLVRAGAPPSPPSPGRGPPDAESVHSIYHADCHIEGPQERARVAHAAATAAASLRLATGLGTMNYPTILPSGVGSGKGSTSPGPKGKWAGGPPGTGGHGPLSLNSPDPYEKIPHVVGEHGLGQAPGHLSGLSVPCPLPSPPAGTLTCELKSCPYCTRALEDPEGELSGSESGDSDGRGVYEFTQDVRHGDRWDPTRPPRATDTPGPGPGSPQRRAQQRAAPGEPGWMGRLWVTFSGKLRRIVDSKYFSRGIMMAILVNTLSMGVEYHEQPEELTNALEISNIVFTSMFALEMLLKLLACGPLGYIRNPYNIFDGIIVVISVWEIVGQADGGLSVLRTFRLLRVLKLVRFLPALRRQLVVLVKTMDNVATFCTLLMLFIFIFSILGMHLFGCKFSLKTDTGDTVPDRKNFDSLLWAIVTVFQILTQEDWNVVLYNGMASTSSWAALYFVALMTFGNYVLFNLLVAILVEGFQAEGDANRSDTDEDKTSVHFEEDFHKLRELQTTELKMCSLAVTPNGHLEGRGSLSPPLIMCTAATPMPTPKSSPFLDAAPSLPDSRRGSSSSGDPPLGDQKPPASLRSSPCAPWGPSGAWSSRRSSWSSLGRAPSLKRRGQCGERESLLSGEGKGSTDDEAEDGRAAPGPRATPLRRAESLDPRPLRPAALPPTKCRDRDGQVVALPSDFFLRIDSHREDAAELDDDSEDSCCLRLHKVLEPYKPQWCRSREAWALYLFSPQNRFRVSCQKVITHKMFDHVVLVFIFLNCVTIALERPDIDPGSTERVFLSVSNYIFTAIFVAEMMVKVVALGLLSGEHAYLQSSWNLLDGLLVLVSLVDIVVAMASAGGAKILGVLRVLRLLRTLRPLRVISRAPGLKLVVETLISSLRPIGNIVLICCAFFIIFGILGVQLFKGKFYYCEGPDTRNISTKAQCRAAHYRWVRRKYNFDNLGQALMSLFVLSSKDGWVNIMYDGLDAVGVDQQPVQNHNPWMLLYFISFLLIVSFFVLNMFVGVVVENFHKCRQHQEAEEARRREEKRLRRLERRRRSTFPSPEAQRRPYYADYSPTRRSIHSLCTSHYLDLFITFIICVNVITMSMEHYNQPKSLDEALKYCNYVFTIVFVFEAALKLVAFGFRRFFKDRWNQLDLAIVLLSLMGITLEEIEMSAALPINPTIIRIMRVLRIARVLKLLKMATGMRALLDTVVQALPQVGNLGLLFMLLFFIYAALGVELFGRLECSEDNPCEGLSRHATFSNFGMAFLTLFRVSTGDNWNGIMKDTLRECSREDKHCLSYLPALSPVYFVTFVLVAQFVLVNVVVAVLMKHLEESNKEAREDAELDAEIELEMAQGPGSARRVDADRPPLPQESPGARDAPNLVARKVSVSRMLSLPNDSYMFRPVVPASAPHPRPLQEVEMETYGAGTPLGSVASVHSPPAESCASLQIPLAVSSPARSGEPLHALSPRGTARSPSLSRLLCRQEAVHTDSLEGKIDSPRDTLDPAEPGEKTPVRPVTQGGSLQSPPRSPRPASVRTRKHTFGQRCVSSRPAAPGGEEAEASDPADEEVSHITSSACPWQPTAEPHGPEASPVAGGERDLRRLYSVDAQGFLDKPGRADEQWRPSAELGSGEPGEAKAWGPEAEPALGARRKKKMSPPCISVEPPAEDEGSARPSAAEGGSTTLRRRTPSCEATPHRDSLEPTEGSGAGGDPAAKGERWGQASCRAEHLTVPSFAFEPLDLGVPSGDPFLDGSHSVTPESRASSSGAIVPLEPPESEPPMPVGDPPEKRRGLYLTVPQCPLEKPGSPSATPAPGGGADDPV
# [7] = system: INS1; experiment: beta cell apoptosis inhibitors, cytokine rescue, dose response, luminescence, retest (AID 449756); type: functional, cell-based; conditions: Rattus norvegicus, INS1;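 note: cell death triggered by IL-1 beta plus TNF-alpha plus IFN-gamma mixture; protective hits raise ATP signal compared with cytokine alone wells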
# [8] = Luminescence Cell-Based Dose Retest to Confirm Inhibitors of Cancer Stem Cells. [Related pubchem assays (depositor defined):AID2717, AID2721]; type: functional; conditions: Homo sapiens
# [9] = biological target: T2, Microphthalmia-associated transcription factor (Homo sapiens, UniProt O75030); experiment: TRPM1 promoter luciferase signal decrease, dose response, MITF inhibitor project, cell-based, SK-MEL-5, cherry-picked, set 3 (AID 493073); type: functional
# T2 sequence (O75030 whole entry): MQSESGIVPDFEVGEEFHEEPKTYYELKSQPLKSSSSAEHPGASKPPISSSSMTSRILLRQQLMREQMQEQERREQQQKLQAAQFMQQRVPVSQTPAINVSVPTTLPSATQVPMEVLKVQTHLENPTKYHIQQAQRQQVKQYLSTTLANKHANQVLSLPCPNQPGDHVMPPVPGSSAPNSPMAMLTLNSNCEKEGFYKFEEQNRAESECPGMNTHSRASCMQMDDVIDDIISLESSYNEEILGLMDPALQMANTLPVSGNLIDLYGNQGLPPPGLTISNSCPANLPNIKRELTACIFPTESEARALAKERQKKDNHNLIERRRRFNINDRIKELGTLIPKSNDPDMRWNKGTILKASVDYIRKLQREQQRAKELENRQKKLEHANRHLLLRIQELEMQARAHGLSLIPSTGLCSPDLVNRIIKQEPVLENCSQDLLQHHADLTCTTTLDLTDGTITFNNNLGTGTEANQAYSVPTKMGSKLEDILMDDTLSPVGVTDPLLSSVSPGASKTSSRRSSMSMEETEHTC
# [10] = cells; type: functional
# [11] = system: Streptococcus; experiment: Group A Streptococcus viability loss, dose response, counter-screen for streptokinase expression inhibitor project, luminescence, BacTiterGlo (AID 1915); type: functional, organism-based;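 note: potency for reduction of bacterial viability or growth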
# [12] = NIH-3T3 fibroblast cytotoxicity, dose response, cytotoxicity control, cell-based, fluorescence, Alamar Blue, secondary assay (AID 2327); type: functional;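 note: NIH-3T3 mouse fibroblasts cultured with fluconazole at 8 µg/mL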
# [13] = system: Streptococcus sp. 'group A'; experiment: growth inhibition of control SK(-) GAS strain, dose response, counter-screen for streptokinase expression inhibitor project, luminescence, kanamycin, BacTiterGlo, confirmation (AID 1900); type: functional, organism-based
# [14] = C. albicans growth with fluconazole, confirmation, fluorescence, retest (AID 2467); type: functional, cell-based
# [15] = biological target: T3, Nucleotide-binding oligomerization domain-containing protein 1 (Homo sapiens, UniProt Q9Y239); experiment: NOD1 signaling inhibitors, SAR follow-up, revised (AID 2333); type: functional
# T3 sequence (Q9Y239 whole entry): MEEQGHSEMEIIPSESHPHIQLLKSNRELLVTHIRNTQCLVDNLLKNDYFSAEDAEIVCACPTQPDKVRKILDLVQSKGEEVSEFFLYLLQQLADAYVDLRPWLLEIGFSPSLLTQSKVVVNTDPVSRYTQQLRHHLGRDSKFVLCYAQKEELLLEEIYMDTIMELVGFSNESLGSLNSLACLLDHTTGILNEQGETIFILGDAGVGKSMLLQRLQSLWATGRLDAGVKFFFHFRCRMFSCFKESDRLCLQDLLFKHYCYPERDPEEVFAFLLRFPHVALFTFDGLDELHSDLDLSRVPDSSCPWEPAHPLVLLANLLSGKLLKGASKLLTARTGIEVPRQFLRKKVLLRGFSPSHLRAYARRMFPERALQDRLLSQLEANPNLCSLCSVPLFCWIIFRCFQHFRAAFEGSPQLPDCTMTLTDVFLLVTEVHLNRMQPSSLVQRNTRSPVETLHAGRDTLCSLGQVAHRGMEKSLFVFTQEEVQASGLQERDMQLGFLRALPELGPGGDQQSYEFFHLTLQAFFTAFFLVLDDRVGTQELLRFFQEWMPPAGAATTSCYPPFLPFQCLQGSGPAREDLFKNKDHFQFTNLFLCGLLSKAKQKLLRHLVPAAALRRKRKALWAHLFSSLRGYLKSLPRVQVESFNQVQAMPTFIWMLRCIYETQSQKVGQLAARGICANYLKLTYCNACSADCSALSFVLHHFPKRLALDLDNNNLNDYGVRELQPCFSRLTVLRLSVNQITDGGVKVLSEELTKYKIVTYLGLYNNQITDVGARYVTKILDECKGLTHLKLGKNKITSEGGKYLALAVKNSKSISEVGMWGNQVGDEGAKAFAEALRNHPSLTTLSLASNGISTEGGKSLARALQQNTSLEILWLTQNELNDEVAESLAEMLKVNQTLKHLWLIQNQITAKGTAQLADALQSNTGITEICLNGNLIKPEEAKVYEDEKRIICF
# [16] = system: HEK293; experiment: NOD2 signaling inhibitors in MDP-stimulated cells, cell-based, uHTS, luminescence (AID 2001); type: functional; conditions: Homo sapiens
# [17] = system: HEK293; experiment: cells; type: functional, cell-based; conditions: Homo sapiens
# [18] = system: HEK293; experiment: cells; type: functional, cell-based; conditions: Homo sapiens; remark: listed apart in the source
# [19] = system: HEK293; experiment: NOD1 signaling inhibitors, primary screen, cell-based, luminescence, uHTS (AID 1578); type: functional; conditions: Homo sapiens
# [20] = biological target: Tumor necrosis factor (Homo sapiens, UniProt P01375); experiment: TNFa-triggered NF-kB activation inhibitors, SAR follow-up, cell-based, revised (AID 2337); type: functional
# Sequence of Tumor necrosis factor (P01375 whole entry): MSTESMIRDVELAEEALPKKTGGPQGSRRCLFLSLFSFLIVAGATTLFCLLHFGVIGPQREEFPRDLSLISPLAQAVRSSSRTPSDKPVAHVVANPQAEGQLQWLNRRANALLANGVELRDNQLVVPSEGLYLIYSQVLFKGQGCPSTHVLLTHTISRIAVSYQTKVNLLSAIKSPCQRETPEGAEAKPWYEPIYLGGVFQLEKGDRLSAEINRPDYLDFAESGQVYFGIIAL
# [21] = system: HEK293; experiment: cells; conditions: Homo sapiens
# [22] = Luminescence Cell-Based Dose Confirmation HTS to Identify Activators of 5'UTR Stem-Loop Driven Alpha-Synuclein mRNA Translation in H4 Neuroglioblastoma Cells. [Related pubchem assays: 1829 (Project Summary), 1814 (Primary HTS)]; type: functional
# [23] = Luminescence Cell-Based Dose Response HTS to Identify Activators of Luciferase Translation or Activity in H4 […] Cells. [Related pubchem assays: 1829 (Project Summary), 1814 (Primary HTS)]; type: functional
# [24] = system: H4; experiment: Luminescence Cell-Based Dose Response HTS to Identify Activators of 5'UTR Stem-Loop Driven Prion Protein mRNA Translation in H4 Neuroglioblastoma Cells. [Related pubchem assays: 1829 (Project Summary), 1814 (Primary HTS)]; type: functional; conditions: Homo sapiens
# [25] = biological target: T4, Carboxy-terminal domain RNA polymerase II polypeptide A small phosphatase 1 (Homo sapiens, UniProt Q9GZU7); experiment: inhibitors of CTDSP1, concentration-response testing, biochemical assay, absorbance-based, actives from ultra-high-throughput screening (AID 540297); type: functional
# T4 sequence (Q9GZU7 whole entry): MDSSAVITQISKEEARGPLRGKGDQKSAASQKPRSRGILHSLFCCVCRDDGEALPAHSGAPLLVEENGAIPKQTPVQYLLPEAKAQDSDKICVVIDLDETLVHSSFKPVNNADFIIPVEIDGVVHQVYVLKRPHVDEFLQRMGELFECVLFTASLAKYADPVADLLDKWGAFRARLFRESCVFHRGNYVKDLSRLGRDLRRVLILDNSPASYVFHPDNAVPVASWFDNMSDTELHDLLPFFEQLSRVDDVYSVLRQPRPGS
structure (smiles),measurement,setting,value
CCOC(=O)C1(Cc2ccccc2)CCN(Cc2c[nH]nc2-c2ccccc2)CC1,EC50,[1],6.68 µM (active)
CCOc1cc(/C=N/Nc2ccc(S(=O)(=O)Nc3ccccc3C(=O)O)cc2[N+](=O)[O-])cc(Cl)c1O,IC50,[2],30.4 µM (active)
Cc1cccc(N2C(=O)C(Cl)=C(N(C)C)C2=O)c1,IC50,[3],> 50 µM (inconclusive)
O=c1oc(CCCO)cc2ccc(C#Cc3ccsc3)cc12,CC50,[4],> 40 µM (active)
Cc1cc([N+](=O)[O-])ccc1NC(=S)NC(=O)Cc1ccccc1,IC50,[5],> 66.6 µM (inactive)
CCOC(=O)Cc1csc(NC(=O)COc2ccc3ccccc3c2)n1,EC50,[6],2.56 µM (active)
COC(=O)c1ccc(N2CCN(C)CC2)c(NC(=O)COc2ccccc2)c1,EC50,[1],5.96 µM (active)
CC(=O)NC(c1cc(Cl)c2cccnc2c1O)C1CC1 (centres undefined),AC50,[7],1.91 µM (active)
same,CC50,[4],5.47 µM (active)
same,AC50,[8],3.26 µM (active)
O=C(N/N=C/c1ccccn1)c1cc([N+](=O)[O-])cc([N+](=O)[O-])c1,AC50,[9],6.54 µM (active)
same,IC50,[10],40.2 µM (active)
O=C(NC1CC1)C1=C[C@H](c2csc3ccccc23)C[C@H](OCc2ccc(CO)cc2)O1,EC50,[1],10.6 µM (active)
O=S(=O)(c1ccc(Cl)cc1)N1CCCC1c1nc2ccccc2s1 (centres undefined),EC50,[6],6.61 µM (active)
Clc1ccc(CN(CC2CCCO2)C(c2cccs2)c2nnnn2C2CCCC2)cc1 (centres undefined),EC50,[6],6.56 µM (active)
C=CC/N=c1\scc(-c2ccc(F)cc2)n1/N=C/c1ccccn1,CC50,[4],> 40 µM (active)
CCN(CC)S(=O)(=O)c1cccc(-c2nnc(SCCOc3ccccc3C)o2)c1,EC50,[6],9.91 µM (active)
O=C(COc1ccccc1)NNC(=S)NC(=O)c1ccc(Cl)cc1Cl,EC50,[11],2.96 µM (active)
same,EC50,[12],110 µM (active)
same,EC50,[13],623 nM (active)
same,EC50,[14],> 38 µM (not active)
same,EC50,[1],4.73 µM (active)
CSc1ccc(N=Nc2c(C)[nH]n(C)c2=O)cc1,IC50,[10],15.6 µM (active)
COc1ccc(-c2cc(=O)oc3cc(OCC(=O)Nc4ccc(CCO)cc4)ccc23)cc1,IC50,[15],5.18 µM (active)
same,IC50,[16],> 20 µM (inactive)
same,IC50,[17],> 20 µM (inactive)
same,IC50,[18],> 20 µM (inactive)
same,EC50,[19],9.26 µM (active)
same,IC50,[20],> 20 µM (inactive)
same,IC50,[21],> 20 µM (inactive)
COc1ccc(C(=O)/C=C/c2cccs2)c(OC(=O)c2cccc([N+](=O)[O-])c2)c1,EC50,[22],> 120 µM (not active)
same,EC50,[23],4.7 µM (active)
same,EC50,[24],10.6 µM (active)
same,CC50,[4],38.5 µM (active)
O=C(O)CN1C(=O)/C(=C2\C(=O)N(Cc3ccccc3Cl)c3ccccc32)SC1=S,IC50,[2],28.2 µM (active)
same,IC50,[25],2.61 µM (active)
COc1cccc(N2C(=O)C(Cl)=C(N3CCN[C@@H](C)C3)C2=O)c1,IC50,[3],> 50 µM (inconclusive)
O=C(CC1C(=O)NCCN1Cc1ccc(-c2ccccc2)cc1)NCCc1ccccn1 (centres undefined),EC50,[1],4.73 µM (active)
CSc1ncccc1C(=O)Nc1nc2ccc(Oc3ccccc3)cc2s1,CC50,[4],> 40 µM (active)
